According to the CombiSolv-Exp solvation set (Vermeire and Green 2021):

Assay: solvent given as SMILES
[1] = in CCCCCCCCC=CCCCCCCCC(=O)OCC(COC(=O)CCCCCCCC=CCCCCCCCC)OC(=O)CCCCCCCC=CCCCCCCCC

## C=C1CCC2C(C)CCC3C(C12)C3(C)C (stereo unspecified)
In O
  solvation free energy, 298 K: 0.42 kcal/mol

## CCCCCCCCCCCC
In CCCCCC
  solvation free energy, 298 K: -8.24 kcal/mol
In CN(C)C=O
  solvation free energy, 298 K: -6.15 kcal/mol
In OCCOCCO
  solvation free energy, 298 K: -4.02 kcal/mol
In OCCOCCOCCO
  solvation free energy, 298 K: -4.27 kcal/mol
In OCCOCCOCCOCCO
  solvation free energy, 298 K: -4.58 kcal/mol

## Nc1ccc([N+](=O)[O-])cc1
In CC(C)CC(C)(C)C
  solvation free energy, 298 K: -8.11 kcal/mol
In CC(C)CO
  solvation free energy, 298 K: -11.6 kcal/mol
In CCC(C)O
  solvation free energy, 298 K: -11.9 kcal/mol
In CCCCOC(C)=O
  solvation free energy, 298 K: -12.7 kcal/mol
In CCCCOCCCC
  solvation free energy, 298 K: -11.1 kcal/mol
In COC(C)=O
  solvation free energy, 298 K: -13.2 kcal/mol

## FCCF
In CCCO
  solvation free energy, 298 K: -3.64 kcal/mol

## O=C=S
In CC1COC(=O)O1
  solvation free energy, 298 K: -1.15 kcal/mol
In CN1CCCC1=O
  solvation free energy, 298 K: -1.41 kcal/mol
In COCCOCCOCCOCCOC
  solvation free energy, 298 K: -1.41 kcal/mol
In O
  solvation free energy, 298 K: 0.41 kcal/mol

## Clc1ccc(Cl)c(-c2ccccc2)c1
In O
  solvation free energy, 298 K: -2.46 kcal/mol

## O=C1OC(C(O)CO)C(O)=C1O (stereo unspecified)
In CCCO
  solvation free energy, 298 K: -17.2 kcal/mol
In CCO
  solvation free energy, 298 K: -17.7 kcal/mol

## CC1(C)C2=CCCC(C)(C)C23CCC1C3 (stereo unspecified)
In O
  solvation free energy, 298 K: 0.71 kcal/mol

## CCCCCC(=O)CC(=O)CCCCC
In O
  solvation free energy, 298 K: -3.68 kcal/mol

## CCCCCCCCl
In O
  solvation free energy, 298 K: 0.29 kcal/mol

## CC=CCCC
In NC=O
  solvation free energy, 298 K: -1.06 kcal/mol
In OCCO
  solvation free energy, 298 K: -1.25 kcal/mol
In OCCOCCO
  solvation free energy, 298 K: -1.92 kcal/mol
In OCCOCCOCCO
  solvation free energy, 298 K: -2.02 kcal/mol

## CCCCCCCCCCCCCCO
In CC(C)O
  solvation free energy, 298 K: -12.3 kcal/mol
In CCC(C)=O
  solvation free energy, 298 K: -12.6 kcal/mol
[1]
  solvation free energy, 298 K: -9.9 kcal/mol
In CCCCCCCCCCO
  solvation free energy, 298 K: -12.1 kcal/mol
In CCCCCCO
  solvation free energy, 298 K: -12.2 kcal/mol
In O
  solvation free energy, 298 K: -3.08 kcal/mol

## O=COc1ccccc1
In O
  solvation free energy, 298 K: -3.82 kcal/mol

## CCCCCC=CCC=CCCCCCCCC(=O)OC
In O
  solvation free energy, 298 K: -2.48 kcal/mol

## C1CNCCN1
In O
  solvation free energy, 298 K: -7.4 kcal/mol

## CC(=O)C(C)O (stereo unspecified)
In O
  solvation free energy, 298 K: -4.29 kcal/mol

## CCCC(=O)CC
In O
  solvation free energy, 298 K: -3.07 kcal/mol

## C1=CCC=CC1
In C1CCC2CCCCC2C1
  solvation free energy, 298 K: -4.4 kcal/mol
In C1CCC(C2CCCCC2)CC1
  solvation free energy, 298 K: -4.34 kcal/mol
In CCC(C)=O
  solvation free energy, 298 K: -4.41 kcal/mol
In O
  solvation free energy, 298 K: -0.67 kcal/mol
In c1ccc2c(c1)CCCC2
  solvation free energy, 298 K: -4.58 kcal/mol
In c1ccc(C2CCCCC2)cc1
  solvation free energy, 298 K: -4.49 kcal/mol

## Cc1ccc(N(O)C(=O)COc2ccccc2)cc1
In O
  solvation free energy, 298 K: -12.8 kcal/mol

## O=c1[nH]cc(I)c(=O)[nH]1
In O
  solvation free energy, 298 K: -18.7 kcal/mol

## Clc1cc(Cl)c(-c2c(Cl)c(Cl)cc(Cl)c2Cl)cc1Cl
In O
  solvation free energy, 298 K: -2.77 kcal/mol

## COC(C)(C)C
In CC(=O)N(C)C
  solvation free energy, 298 K: -3.29 kcal/mol
In CC(C)(C)O
  solvation free energy, 298 K: -3.81 kcal/mol
In CC(C)CC(C)(C)C
  solvation free energy, 298 K: -3.58 kcal/mol
In CC(C)CCl
  solvation free energy, 298 K: -3.89 kcal/mol
In CCC(C)Cl
  solvation free energy, 298 K: -3.88 kcal/mol
In CCCCCCC
  solvation free energy, 298 K: -3.54 kcal/mol
In CCCCCCCC
  solvation free energy, 298 K: -3.51 kcal/mol
In CCCCCCCCCC
  solvation free energy, 298 K: -3.48 kcal/mol
In CCCCCCCCCCCCCCCC
  solvation free energy, 298 K: -3.22 kcal/mol
In CCCCCCCCCCO
  solvation free energy, 298 K: -3.73 kcal/mol
In CCCCCCCCO
  solvation free energy, 298 K: -3.52 kcal/mol
In CCCCCCO
  solvation free energy, 298 K: -3.55 kcal/mol
In CCCCCl
  solvation free energy, 298 K: -3.91 kcal/mol
In CCCCN(C=O)CCCC
  solvation free energy, 298 K: -3.34 kcal/mol
In CCN1CCCC1=O
  solvation free energy, 298 K: -3.21 kcal/mol
In CCN(CC)C(C)=O
  solvation free energy, 298 K: -3.4 kcal/mol
In CCNC(C)=O
  solvation free energy, 298 K: -3.26 kcal/mol
In CCNC=O
  solvation free energy, 298 K: -3.21 kcal/mol
In CN1CCCCC1=O
  solvation free energy, 298 K: -3.22 kcal/mol
In CN(C)C=O
  solvation free energy, 298 K: -3.18 kcal/mol
In CNC(C)=O
  solvation free energy, 298 K: -3.12 kcal/mol
In CNC=O
  solvation free energy, 298 K: -3.08 kcal/mol
In CO
  solvation free energy, 298 K: -3.78 kcal/mol
In COC(=O)OC
  solvation free energy, 298 K: -3.52 kcal/mol
In ClC(Cl)(Cl)Cl
  solvation free energy, 298 K: -3.94 kcal/mol
In ClC(Cl)Cl
  solvation free energy, 298 K: -4.88 kcal/mol
In O
  solvation free energy, 298 K: -2.02 kcal/mol
In [2H]O[2H]
  solvation free energy, 298 K: -2.15 kcal/mol

## CCCCCC(=O)c1c(C)[nH]n(-c2ccccc2)c1=O
In O
  solvation free energy, 298 K: -9.26 kcal/mol

## CC(=O)OCCc1ccccc1
In O
  solvation free energy, 298 K: -5.5 kcal/mol

## CC(C)(C)Br
In Brc1ccccc1
  solvation free energy, 298 K: -3.89 kcal/mol
In C1CCOC1
  solvation free energy, 298 K: -3.87 kcal/mol
In C1COCCO1
  solvation free energy, 298 K: -3.81 kcal/mol
In C=CCCCCCCCCCCCCCC
  solvation free energy, 298 K: -3.56 kcal/mol
In CC(=O)N(C)C
  solvation free energy, 298 K: -3.52 kcal/mol
In CC(C)(C)O
  solvation free energy, 298 K: -3.36 kcal/mol
In CC(C)=O
  solvation free energy, 298 K: -3.86 kcal/mol
In CC(C)O
  solvation free energy, 298 K: -3.23 kcal/mol
In CCCCCC
  solvation free energy, 298 K: -3.75 kcal/mol
In CCCCO
  solvation free energy, 298 K: -3.3 kcal/mol
In CCCO
  solvation free energy, 298 K: -3.19 kcal/mol
In CCOC(C)=O
  solvation free energy, 298 K: -4.05 kcal/mol
In CCOCC
  solvation free energy, 298 K: -3.85 kcal/mol
In CN1CCCC1=O
  solvation free energy, 298 K: -3.44 kcal/mol
In CN(C)C=O
  solvation free energy, 298 K: -3.59 kcal/mol
In ClC(Cl)(Cl)Cl
  solvation free energy, 298 K: -4.13 kcal/mol
In ClCCCl
  solvation free energy, 298 K: -4.02 kcal/mol
In Clc1ccccc1
  solvation free energy, 298 K: -3.93 kcal/mol
In N#Cc1ccccc1
  solvation free energy, 298 K: -3.64 kcal/mol
In O
  solvation free energy, 298 K: 0.85 kcal/mol

## CCc1cccc(O)c1
In O
  solvation free energy, 298 K: -6.25 kcal/mol

## C1COCCOCCOCCOCCO1
In Cc1cccc(C)c1
  solvation free energy, 298 K: -10.9 kcal/mol
In O
  solvation free energy, 298 K: -12.8 kcal/mol

## C=C(C)CCCC
In C=CCCCCCCCCCCCCCC
  solvation free energy, 298 K: -4.04 kcal/mol
In O
  solvation free energy, 298 K: 1.66 kcal/mol

## CCSC
In O
  solvation free energy, 298 K: -1.5 kcal/mol

## C=C(c1ccccc1)c1ccccc1
In O
  solvation free energy, 298 K: -2.78 kcal/mol

## Oc1c(Cl)c(Cl)c(Cl)c(Cl)c1Cl
[1]
  solvation free energy, 298 K: -10.3 kcal/mol
In O
  solvation free energy, 298 K: -4.99 kcal/mol
